Measurements published in ChEMBL document CHEMBL4665770, “Design and Discovery of Natural Cyclopeptide Skeleton Based Programmed Death Ligand 1 Inhibitor as Immune Modulator for Cancer Therapy” (J Med Chem, 2020).
Square brackets hold non-standard residues; d marks the D form. Peptide text beside a SMILES is read from it.

Target: Programmed cell death protein 1/Programmed cell death 1 ligand 1 (Homo sapiens) (UniProt Q15116+Q9NZQ7)
Test: Inhibition of PD1-Tag2/PD-L1-Tag1 (unknown origin) protein-protein interaction at 20 uM preincubated for 15 mins followed by addition of anti-Tag1-Eu3+ and anti-Tag2-XL665 measured after 3 hrs by HTRF assay relative to control
Type: protein-complex assay
Conditions: time 195.0 min

First: CC(C)C[C@@H]1NC(=O)[C@H](CCCNC(=N)N)NC(=O)[C@H](C(C)C)NC(=O)[C@H](CC(=O)O)NC(=O)[C@@H]2CCCN2C(=O)[C@@H](Cc2ccccc2)NC(=O)[C@H](CC(C)C)NC(=O)[C@H]([C@@H](C)O)NC(=O)[C@@H]2CCCN2C(=O)[C@@H](Cc2ccccc2)NC1=O (cyclo(DVRL[dF]PTL[dF]P))
Second: CC(C)C[C@@H]1NC(=O)[C@H](CC(=O)O)NC(=O)[C@H](CCCNC(=N)N)NC(=O)[C@H](C(C)C)NC(=O)[C@@H]2CCCN2C(=O)[C@@H](Cc2ccccc2)NC(=O)[C@H](CC(C)C)NC(=O)[C@H]([C@@H](C)O)NC(=O)[C@@H]2CCCN2C(=O)[C@@H](Cc2ccccc2)NC1=O (cyclo(DL[dF]PTL[dF]PVR))
The inhibition of the first is higher: 1.93% for the first, -7.34% for the second.

Going from `CC(C)C[C@@H]1NC(=O)[C@H](CCCNC(=N)N)NC(=O)[C@H]([C@@H](C)O)NC(=O)[C@@H]2CCCN2C(=O)[C@@H](Cc2ccccc2)NC(=O)[C@H](CC(C)C)NC(=O)[C@H](CCCNC(=N)N)NC(=O)[C@H](C(C)C)NC(=O)[C@@H]2CCCN2C(=O)[C@@H](Cc2ccccc2)NC1=O` (cyclo(L[dF]PTRL[dF]PVR)) to `CC(C)C[C@@H]1NC(=O)[C@H](Cc2ccc(O)cc2)NC(=O)[C@H]([C@@H](C)O)NC(=O)[C@@H]2CCCN2C(=O)[C@@H](Cc2ccccc2)NC(=O)[C@H](CC(C)C)NC(=O)[C@H](CCCNC(=N)N)NC(=O)[C@H](C(C)C)NC(=O)[C@@H]2CCCN2C(=O)[C@@H](Cc2ccccc2)NC1=O` (cyclo(L[dF]PTYL[dF]PVR)), the inhibition falls from 16.9% to 8.25%.

First: CC(C)C[C@@H]1NC(=O)[C@H](CC(=O)O)NC(=O)[C@H](C(C)C)NC(=O)[C@@H]2CCCN2C(=O)[C@@H](Cc2ccccc2)NC(=O)[C@H](C)NC(=O)[C@H](CCCNC(=N)N)NC(=O)[C@H](C)NC(=O)[C@@H]2CCCN2C(=O)[C@@H](Cc2ccccc2)NC1=O (cyclo(ARA[dF]PVDL[dF]P))
Second: CC(C)C[C@@H]1NC(=O)[C@H](CCCNC(=N)N)NC(=O)[C@H](C(C)C)NC(=O)[C@@H]2CCCN2C(=O)[C@@H](Cc2ccccc2)NC(=O)[C@H](C)NC(=O)[C@H](CC(=O)O)NC(=O)[C@H](C(C)C)NC(=O)[C@@H]2CCCN2C(=O)[C@@H](Cc2ccccc2)NC1=O (cyclo(A[dF]PVRL[dF]PVD))
The inhibition of the first is higher: 33.7% for the first, 21.7% for the second.

First: CC(C)C[C@@H]1NC(=O)[C@H](CC(=O)O)NC(=O)[C@H]([C@@H](C)O)NC(=O)[C@@H]2CCCN2C(=O)[C@@H](Cc2ccccc2)NC(=O)[C@H](CC(C)C)NC(=O)[C@H](CC(N)=O)NC(=O)[C@H](C(C)C)NC(=O)[C@@H]2CCCN2C(=O)[C@@H](Cc2ccccc2)NC1=O (cyclo(DL[dF]PVNL[dF]PT))
Second: CC(C)C[C@@H]1NC(=O)[C@H](CC(=O)O)NC(=O)[C@H]([C@@H](C)O)NC(=O)[C@@H]2CCCN2C(=O)[C@@H](Cc2ccccc2)NC(=O)[C@H](CC(C)C)NC(=O)[C@H](Cc2cnc[nH]2)NC(=O)[C@H](C(C)C)NC(=O)[C@@H]2CCCN2C(=O)[C@@H](Cc2ccccc2)NC1=O (cyclo(DL[dF]PVHL[dF]PT))
The inhibition of the first is higher: 16.6% for the first, 6.8% for the second.

First: CC(C)C[C@@H]1NC(=O)[C@H](CCCNC(=N)N)NC(=O)[C@H](C(C)C)NC(=O)[C@@H]2CCCN2C(=O)[C@@H](Cc2ccccc2)NC(=O)[C@H](CC(C)C)NC(=O)[C@H](CC(=O)O)NC(=O)[C@H](CCC(=O)O)NC(=O)[C@@H]2CCCN2C(=O)[C@@H](Cc2ccccc2)NC1=O
Second: CC(C)C[C@@H]1NC(=O)[C@H](CCCNC(=N)N)NC(=O)[C@H]([C@@H](C)O)NC(=O)[C@@H]2CCCN2C(=O)[C@@H](Cc2ccccc2)NC(=O)[C@H](CC(C)C)NC(=O)[C@H](CC(=O)O)NC(=O)[C@H](C)NC(=O)[C@@H]2CCCN2C(=O)[C@@H](Cc2ccccc2)NC1=O (cyclo(ADL[dF]PTRL[dF]P))
The inhibition of the first is lower: 1.14% for the first, 41.2% for the second.

With `CC(C)C[C@@H]1NC(=O)[C@H](CC(=O)O)NC(=O)[C@H]([C@@H](C)O)NC(=O)[C@@H]2CCCN2C(=O)[C@@H](Cc2ccccc2)NC(=O)[C@H](CC(C)C)NC(=O)[C@H](CCCNC(=N)N)NC(=O)[C@H](C(C)C)NC(=O)[C@@H]2CCCN2C(=O)[C@@H](Cc2c[nH]c3ccccc23)NC1=O` (cyclo(DL[dW]PVRL[dF]PT)) the inhibition was 35.8%.
